Reference: US20150173371A1 (Dow AgroSciences LLC, priority 2013, published 2015)
“And” between values parts separate entries of the source, which are not always exact repeats. Equal values may be shown once. Read-outs that look alike come from different tables or passages of the source.

Legend:
[1] = system: Conyza canadensis (horseweed, ERICA); conditions: field trial
Procedure: (§1) Field trials were conducted under normal field conditions in multiple states in the United States, including but not limited to Alabama, Mississipi, South Carolina and Tennessee; and in Brazil, including but not limited to the states of Goias, Mato Grosso, Parana, Rio Grande do Sul, and Sao Paulo. Trials were established as RCB (randomized complete block) design, with 3-4 replicates per treatment, and plot sizes varying from 2-3 meters (m) wide by 4-8 m long. Treatments were applied with small plot backpack sprayers, using pressurized carbon dioxide (CO2) as propellant. Pressure varied from 22-40 PSI, with spray tips typically of a Flat Fan type applying water diluent at 150 L/ha. Boom sizes varied from 2-3 m in width. Treatments were applied to soybean, cotton or fallow crop land. Weed sizes varied, but all treatments were applied as post-emergence treatments to weeds from 2 leaf to 2 tiller growth stages varying from 2-15 inches (in) in height. No additional adjuvant was mixed with the treatments applied in the field
(§2) The treated plots and control plots were rated blind at various intervals after application.
(§3) Colby's equation was used to determine the herbicidal effects expected from the mixtures (Colby, S. R. Calculation of the synergistic and antagonistic response of herbicide combinations. Weeds 1967 15, 20-22). A t-test (alpha=0.05) between Colby predictions and observed combinations was used to test for significant differences indicating synergy or antagonism.
(§4) The following equation was used to calculate the expected activity of mixtures containing two active ingredients, A and B:
(§5) Expected=A+B−(A×B/100) • A=observed efficacy of active ingredient A at the same concentration as used in the mixture; • B=observed efficacy of active ingredient B at the same concentration as used in the mixture.

[2] = system: Conyza bonariensis (hairy fleabane, ERIBO); conditions: field trial
Procedure: as §1, §2, §3, §4, §5

[3] = system: Ambrosia artemisiifolia (common ragweed, AMBEL); experiment: Greenhouse trial, % visual weed control; assay type: in vivo; conditions: 14DAA, 105 g ae/ha alone
Procedure: (§6) Greenhouse trials were conducted under controlled environment greenhouse conditions, with plants grown in pots with Metromix soil and bottom watered. Treatments were applied with 3 replicates per treatment, using a track sprayer with 2 flat fan nozzles at 40 pounds per square inch (PSI). Water was used as the diluent at 140 liters per hectare (L/ha), with weeds being 2-4 leaf stage and approximately 3 inches in height at treatment.

[4] = system: Elymus repens (quackgrass, AGRRE); experiment: Greenhouse trial, % visual weed control; assay type: in vivo; conditions: 14DAA, 210 g ae/ha alone
Procedure: as §6

[5] = system: Chenopodium album (common lambsquarter, CHEAL); experiment: Greenhouse trial, % visual weed control; assay type: in vivo; conditions: 14DAA
Procedure: as §6

[6] = system: Abutilon theophrasti (velvetleaf, ABUTH); experiment: Greenhouse trial, % visual weed control; assay type: in vivo; conditions: 14DAA
Procedure: as §6

[7] = system: Sesbania exaltata (hemp sesbania, SEBEX); experiment: Field trial, % visual weed control; assay type: in vivo; conditions: 8DAA, 840 g ae/ha alone
Description: (§7) Boom sizes varied from 2-3 m in width.

[8] = system: Ipomoea grandifolia (Corda-de-viola, IAQGR); experiment: Field trial, % visual weed control; assay type: in vivo; conditions: 17DAA, 800 g ae/ha alone
Description: as §7

[9] = system: Commelina benghalensis (hairy wandering Jew, COMBE); experiment: Field trial, % visual weed control; assay type: in vivo; conditions: 800 g ae/ha alone
Description: as §7

[10] = system: Jacquemontia tamnifolia (smallflower morningglory, IAQTA); experiment: Field trial, % visual weed control; assay type: in vivo; conditions: 7DAA, 1120 g ae/ha alone
Description: as §7

[11] = system: Ipomoea species (morningglory, IPOSS); experiment: Field trial, % visual weed control; assay type: in vivo; conditions: 8DAA, 840 g ae/ha alone
Description: as §7

[12] = system: Spermacoce latifolia (broadleaf buttonweed, BOILF); experiment: Field trial, % visual weed control; assay type: in vivo
Description: as §7

[13] = system: Raphanus raphanistrim (wild radish, RAPRA); experiment: Field trial, % visual weed control; assay type: in vivo; conditions: 6DAA, 800 g ae/ha alone
Description: as §7

[14] = system: Brachiaria decumbens (Surinam grass, BRADC); experiment: Field trial, % visual weed control; assay type: in vivo; conditions: 12DAA, 720 g ae/ha alone
Description: as §7

[15] = system: Tridax procumbens L (tridax daisy, TRQPR); experiment: Field trial, % visual weed control; assay type: in vivo; conditions: 16DAA, 800 g ae/ha alone
Description: as §7

[16] = system: Euphorbia heterophylla (wild poinsettia, EPHHL); experiment: Field trial, % visual weed control; assay type: in vivo; conditions: 28DAA, 615 g ae/ha alone
Description: as §7

[17] = system: Amaranthus palmeri (Palmer pigweed, AMAPA); experiment: Field trial, % visual weed control; assay type: in vivo
Description: as §7

[18] = system: Euphorbia hirta (garden spurge, EPHHI); experiment: Field trial, % visual weed control; assay type: in vivo
Description: as §7

[19] = system: Glycine max (soybean, glyphosate tolerant, GLXMA); experiment: Field trial, % visual weed control; assay type: in vivo
Description: as §7

SMILES: CNC.O=C(O)CNCP(=O)(O)O [Glyphosate-DMA, dimethylamine salt of N-(phosphonomethyl)glycine]
- Mean % Weed Control ([1]; 10DAA, 960 g ae/ha alone): 10%
- Mean % Weed Control ([1]; 14DAA, 840 g ae/ha alone): 67.5%
- Mean % Weed Control ([1]; 15DAA, 960 g ae/ha alone): 15%
- Mean % Weed Control ([1]; 21DAA, 840 g ae/ha alone): 68.8%
- Mean % Weed Control ([1]; 28DAA, 840 g ae/ha alone): 78.3%
- Mean % Weed Control ([1]; 31DAA, 960 g ae/ha alone): 51.7%
- Mean % Weed Control ([2]; 6DAA, 360 g ae/ha alone): 6.3%
- Mean % Weed Control ([2]; 6DAA, 720 g ae/ha alone): 5.0%
- Mean % Weed Control ([2]; 6DAA, 1080 g ae/ha alone): 12.5%
- Mean % Weed Control ([2]; 7DAA, 800 g ae/ha alone): 13.8% and 11.3%
- Mean % Weed Control ([2]; 10DAA, 800 g ae/ha alone): 41.3%
- Mean % Weed Control ([2]; 20DAA, 800 g ae/ha alone): 35.0%
- Mean % Weed Control ([2]; 21DAA, 800 g ae/ha alone): 36.3%
- Mean % Weed Control ([2]; 28DAA, 800 g ae/ha alone): 53.8% and 32.5% and 33.8%
- Mean % Weed Control ([2]; 31DAA, 800 g ae/ha alone): 38.8%
- Mean % Weed Control ([2]; 36DAA, 800 g ae/ha alone): 75.0% and 55.0%
- Mean % Weed Control [3]: 26.7%
- Mean % Weed Control [4]: 12.5%
- Mean % Weed Control ([5]; 105 g ae/ha alone): 0.0%
- Mean % Weed Control ([5]; 210 g ae/ha alone): 21.7%
- Mean % Weed Control ([5]; 420 g ae/ha alone): 70.0%
- Mean % Weed Control ([6]; 105 g ae/ha alone): 0.0%
- Mean % Weed Control ([6]; 210 g ae/ha alone): 3.3%
- Mean % Weed Control ([6]; 420 g ae/ha alone): 63.3%
- Mean % Weed Control ([6]; 840 g ae/ha alone): 85.0%
- Mean % Weed Control [7]: 53.8%
- Mean % Weed Control [8]: 87.0%
- Mean % Weed Control ([9]; 12DAA): 50.0%
- Mean % Weed Control ([9]; 15DAA): 62.5% and 43.8%
- Mean % Weed Control ([9]; 18DAA): 51.3%
- Mean % Weed Control ([9]; 27DAA): 70.0%
- Mean % Weed Control ([9]; 28DAA): 63.8%
- Mean % Weed Control ([9]; 35DAA): 67.5%
- Mean % Weed Control [10]: 86.3%
- Mean % Weed Control [11]: 48.8%
- Mean % Weed Control ([12]; 18DAA, 800 g ae/ha alone): 47.5%
- Mean % Weed Control ([12]; 21DAA, 800 g ae/ha alone): 79.5%
- Mean % Weed Control ([12]; 24DAA, 480 g ae/ha alone): 51.7%
- Mean % Weed Control ([12]; 27DAA, 800 g ae/ha alone): 72.5%
- Mean % Weed Control ([12]; 28DAA, 800 g ae/ha alone): 77.5%
- Mean % Weed Control [13]: 85.0%
- Mean % Weed Control [14]: 73.8%
- Mean % Weed Control [15]: 47.5%
- Mean % Weed Control [16]: 68.3%
- Mean % Weed Control ([17]; 7DAA, 840 g ae/ha alone): 52.5%
- Mean % Weed Control ([17]; 13DAA, 1120 g ae/ha alone): 60.0%
- Mean % Weed Control ([17]; 21DAA, 1120 g ae/ha alone): 61.3%
- Mean % Weed Control ([18]; 7DAA, 800 g ae/ha alone): 43.8%
- Mean % Weed Control ([18]; 18DAA, 800 g ae/ha alone): 50.0%
- Mean % Weed Control ([18]; 21DAA, 800 g ae/ha alone): 41.3%
- Mean % Weed Control ([18]; 24DAA, 480 g ae/ha alone): 50.0%
- Mean % Weed Control ([19]; 7DAA, 960 g ae/ha alone): 0.0%
- Mean % Weed Control ([19]; 16DAA, 480 g ae/ha alone): 0.0%
- Mean % Weed Control ([19]; 28DAA, 480 g ae/ha alone): 0.0%
- Mean % Weed Control ([19]; 28DAA, 960 g ae/ha alone): 0.0%
- Mean % Weed Control ([19]; 30DAA, 480 g ae/ha alone): 0.0%
